Assay results: US10562920B2, “Ln(III) and Ga(III) metallacrown complexes” (The Regents of the University of Michigan, priority 2015, dated 2020)
“And” between values parts separate entries of the source, which are not always exact repeats. Identical values can stand only once.

Experiment: Quantum yields by absolute method using an integration sphere
Assay type: physicochemical
Settings: Ga8Ln2(shi)8, solid state, excitation 350 nm
Method: (§1) Luminescence data were collected on samples placed into 2.4 mm i.d. quartz capillaries or quartz Suprasil cells. Emission and excitation spectra were measured on a Horiba-Jobin-YvonFluorolog 3 spectrofluorimeter equipped with either a visible photomultiplier tube (PMT) (220-800 nm, R928P; Hamamatsu), a NIR solid-state InGaAs detector cooled to 77 K (800-1600 nm, DSS-IGA020L; Jobin-Yvon), or NIR PMTs (950-1450 nm, H10330-45; 950-1650 nm, H10330-75; Hamamatsu). All spectra were corrected for instrumental functions. Luminescence lifetimes were determined under excitation at 355 nm provided by a Nd:YAG laser (YG 980; Quantel), while the signal was detected in the NIR by the aforementioned PMT (H10330-75). The output signal from the detectors was then fed to a 500 MHz bandpass digital oscilloscope (TDS 754C; Tektronix) and then transferred to a PC for treatment with Origin 8®. Luminescence lifetimes are averages of at least three independent measurements. Quantum yields were determined with a Fluorolog 3 spectrofluorimeter according to an absolute method using an integration sphere (GMP SA). Each sample was measured several times under slightly different experimental conditions. Estimated experimental error for quantum yields determination is 10%.

Row | Substance | QLn^L (%) (NIR) | QLn^L (%) (visible)
1 | [Ga8Er2(shi)8(isophthalate)4(DMF)6].8DMF.2H2O | 5.7(1) · 10^−3% | –
2 | [Ga8Ho2(shi)8(isophthalate)4(DMF)6].8DMF.2H2O | 3.3(1) · 10^−3% | –
3 | [Ga8Tb2(shi)8(isophthalate)4(DMF)6].8DMF.H2O | – | 31.2(2) %
4 | [Ga8Yb2(shi)8(isophthalate)4(DMF)6].8DMF.3H2O | 2.43(6) % | –

Further lines, results first:

Row | QLn^L (%) (NIR) | QLn^L (%) (visible) | Substance
5 | 7.5(1) · 10^−2% | 0.85(1) % | [Ga8Dy2(shi)8(isophthalate)4(DMF)6].8DMF.2H2O
6 | 0.99(2) % | – | [Ga8Nd2(shi)8(isophthalate)4(DMF)6].8DMF.H2O
7 | 9.3(1) · 10^−3% | – | [Ga8Pr2(shi)8(isophthalate)4(DMF)6].8DMF.2H2O
8 | 0.269(3) % | 2.09(5) % | [Ga8Sm2(shi)8(isophthalate)4(DMF)6].8DMF.2H2O

Same assay, conditions: solid state Ga4Ln(shi)6

Row | QLn^L/% NIR | QLn^L/% VIS | Substance
9 | 1.55(3) · 10^−3% | – | [ErGa4(shi)4(H2shi)2(C5H5N)5].(NO3).(C5H5N) [Ga4Ershi6]
10 | – | 11.3(5) % | [TbGa4(shi)4(H2shi)2(C5H5N)4(NO3)].(C5H5N)2 [Ga4Tbshi6]
11 | 0.216(6) % | – | [YbGa4(shi)4(H2shi)2(C5H5N)5].(NO3).(C5H5N)2 [Ga4Ybshi6]

Same assay, conditions: solid state Ga4Ln(shi)6, only Dy

Row | QLn^L/% VIS (only Dy) | Substance
12 | 0.222(6) (only Dy) % | [DyGa4(shi)4(H2shi)2(C5H5N)4(NO3)].(C5H5N)2 [Ga4Dyshi6]

Same assay, conditions: solid state Ga4Ln(shi)6, total

Row | QLn^L/% VIS (total) | Substance
13 | 0.308(8) (total) % | [DyGa4(shi)4(H2shi)2(C5H5N)4(NO3)].(C5H5N)2 [Ga4Dyshi6]

Experiment: Ligand triplet state from phosphorescence of Gd3+ analogues
Assay type: physicochemical
Settings: solid state, 77 K, excitation 350 nm
Method: as §1
Phosphorescence can be observed by recording the signal emitted from Ga4Gd(shi)4 in time-resolved mode in the solid state at 77K upon excitation at 350 nm and using a 200 μS delay after the excitation flash (FIG. 9). The 0-0 component of this band represents the energy level of the ligand's triplet state (T1=22,170 cm^−1, 451 nm) which is attributed to the energy level responsible for the main contribution of the transfer to the Ln^3+. The T1 level is sufficiently high in energy to populate the excited states of a wide range of visible and NIR-emitting Ln^3+.
Since the Ga8Ln2(shi)8 dimer compounds were insoluble in all solvents, the solid state photophysical data alone were collected. As with the Ga4Gd(shi)4 compound, the Ga8Gd2(shi)8 complex may be used to examine the ligand-based photophysical properties. […] The solid state ligand phosphorescence was obtained at 77 K using an excitation wavelength of 350 nm and a 100 μs delay (FIG. 11). The profile of the phosphorescence is similar to that of Ga4Gd(shi)4 (FIG. 9), which was expected, since both compounds are formed by the same framework ligand, H3shi. The 0-0 transition was determined to be located at 455 nm, or 21 978 cm^−1. This triplet state energy is slightly lower than that of the Ga4Gd(shi)4 compound (22 170 cm^−1), but still is sufficiently high in energy to sensitize visible (Dy^3+, Tb^3+, Sm^3+) and/or NIR emitting (Dy^3+, Sm^3+, Ho^3+, Yb^3+, Pr^3+, Nd^3+, Er^3+) lanthanides.

Row | ligand triplet state (T1, 0-0 component of phosphorescence), wavelength | ligand triplet state energy (T1, 0-0 component of phosphorescence) | Substance
14 | 451 nm | 22,170 cm^−1 and 22 170 cm^−1 | [Ga4Gd(shi)4(C6H5CO2)4(C5H5N)(CH3OH)].C5H6N.C5H5N.CH3OH
15 | 455 nm | 21 978 cm^−1 | [Ga8Gd2(shi)8(isophthalate)4(DMF)6].8DMF.H2O

Experiment: Emission spectra under ligand excitation at 350 nm
Assay type: physicochemical
Settings: Ga8Ln2(shi)8, solid state
Method: as §1
Using an excitation wavelength of 350 nm, both visible and NIR emission arising from f-f transitions of different lanthanide ions can be observed (FIG. 13). In general, quantum yields are lower for Ga8Ln2(shi)8 MCs compared to […] (Table 3) except for Ho^3+ analogues which quantum yield is increased by 1.65 times reaching 3.3(1)·10^−3%.

Row | Substance | λem/nm
16 | [Ga8Er2(shi)8(isophthalate)4(DMF)6].8DMF.2H2O | 1525 nm
17 | [Ga8Ho2(shi)8(isophthalate)4(DMF)6].8DMF.2H2O | 978 nm
18 | [Ga8Tb2(shi)8(isophthalate)4(DMF)6].8DMF.H2O | 545 nm
19 | [Ga8Yb2(shi)8(isophthalate)4(DMF)6].8DMF.3H2O | 980 nm

Next, values leading:

Row | λem/nm | Substance
20 | 575 nm | [Ga8Dy2(shi)8(isophthalate)4(DMF)6].8DMF.2H2O
21 | 1064 nm | [Ga8Nd2(shi)8(isophthalate)4(DMF)6].8DMF.H2O
22 | 1020 nm | [Ga8Pr2(shi)8(isophthalate)4(DMF)6].8DMF.2H2O
23 | 597 nm | [Ga8Sm2(shi)8(isophthalate)4(DMF)6].8DMF.2H2O

Experiment: Luminescence lifetimes under excitation at 355 nm
Assay type: physicochemical
Settings: Ga8Ln2(shi)8, solid state
Method: as §1

Row | Substance | τobs/μs
24 | [Ga8Er2(shi)8(isophthalate)4(DMF)6].8DMF.2H2O | 5.23(2) μs
25 | [Ga8Ho2(shi)8(isophthalate)4(DMF)6].8DMF.2H2O | 0.032(1) μs
26 | [Ga8Tb2(shi)8(isophthalate)4(DMF)6].8DMF.H2O | 1410(1) μs
27 | [Ga8Yb2(shi)8(isophthalate)4(DMF)6].8DMF.3H2O | 30.5(1) μs

Now from value to substance:

Row | τobs/μs | Substance
28 | 15.0(1) μs | [Ga8Dy2(shi)8(isophthalate)4(DMF)6].8DMF.2H2O
29 | 2.46(1) μs | [Ga8Nd2(shi)8(isophthalate)4(DMF)6].8DMF.H2O
30 | 0.901(6) μs | [Ga8Pr2(shi)8(isophthalate)4(DMF)6].8DMF.2H2O
31 | 117(1) μs | [Ga8Sm2(shi)8(isophthalate)4(DMF)6].8DMF.2H2O

Same assay, conditions: solid state Ga4Ln(shi)6

Row | τ/μs | Substance
32 | 3.36(6) μs | [DyGa4(shi)4(H2shi)2(C5H5N)4(NO3)].(C5H5N)2 [Ga4Dyshi6]
33 | 0.220(3) μs | [ErGa4(shi)4(H2shi)2(C5H5N)5].(NO3).(C5H5N) [Ga4Ershi6]
34 | 0.032(1) μs | [HoGa4(shi)4(H2shi)2(C5H5N)4(NO3)].(C5H5N)2 [Ga4Hoshi6]
35 | 509(7) μs | [TbGa4(shi)4(H2shi)2(C5H5N)4(NO3)].(C5H5N)2 [Ga4Tbshi6]
36 | 2.99(2) μs | [YbGa4(shi)4(H2shi)2(C5H5N)5].(NO3).(C5H5N)2 [Ga4Ybshi6]
